Common to all, as to format: cell-based
Assay [1] concerns the target T1, SMARCA2 (Homo sapiens, UniProt P51531). In words: SMARCA2 degradation in NCI-H838 cells by Western blot. On the set-up: endogenous in cells; host or cells: NCI-H838 (ATCC CRL-5844). Particulars: 16 hours. The procedure:
Determination of SMARCA2 Degradation in NCI-1H838 Cells by Western Blot:
NCI-1H838 (ATCC CRL-5844) was plated in 6 well plates using complete RPMI-1640 media. Next day, compounds of present invention were added to cells from 10 mM stocks made in DMSO (Sigma Cat no. D2650). Each concentration of compound was tested with DMSO concentration not exceeding a final percentage of 0.3 in the cells. Cells were incubated with the compound for 16 hours followed by harvesting with 1× RIPA lysis buffer (Thermo Fischer, catalogue number #89900) containing protease inhibitor cocktail (Sigma catalogue number #P-8340). Equal amount of protein was loaded on SIDS PAGE gel for electrophoresis. Western blot was carried out for detection of SMARCA2 with antibody (Cell signaling technologies, catalogue number #11966). Beta Actin (Santa Cruz, catalogue number #69879) was used as loading control. Percentage of SMARCA2 degradation was calculated using formula % degradation=100−(normalized band intensity in treated sample/normalized band intensity in DMSO sample)*100”.
Selected compounds of the present invention were screened in the above mentioned assay procedures for determination of % SMARCA2 degradation at 100 nM and the results are summarized in below table 31.
In general terms: In western blotting, separated proteins are transferred to a membrane and probed.

Assay [2] deals with NCI-H838 cells. The assay can be described thus: Anti proliferative activity in NCI-H838 cell line by Cell Titer Glo assay. Particulars: Homo sapiens, 192 h, 8 days compound incubation, CellTiter Glo, read-out: Anti-proliferative activity IC50 group (NCI-H838 cells). Here is the method:
Determination of Anti Proliferative Activity of Compounds in NCI-H929 and NCI-H838 Cell Lines by Cell Titer Glo® (promega) assay:
NCI-H929 (ATCC CRL-9068) or NCI-H838 (ATCC CRL-5844) cells were seeded in 96 well plate flat black clear bottom plates (Corning, Cat. No 3904) using complete RPMI-1640 media. Next day, compounds listed in the present invention were added to cells from 10 mM stocks made in DMSO (Sigma Cat no. D2650). Each concentration of compound was tested in triplicate with DMSO concentration at a final percentage not exceeding 0.3 in the cells. After the compound incubation (3 days for H929 and 8 days for H838) assay was terminated using 50 μl of CellTiter Glo® reagent (Promega, Cat. no G7572). CellTiter Glo® Luminescent reagent determines the number of viable cells based on quantitation of ATP present which is an indicator of cell number and metabolic activity. Luminescence readings were taken in Victor-3 instrument. Percent inhibition of proliferation was calculated using formula, % inhibition=100−(luminescence value of test/luminescence value of DMSO control)*100. DMSO control (0%)=Cells in complete media with DMSO; blank=Media alone containing DMSO. IC50 was calculated using graph pad prism software.
Herein group “A” refers to IC50 value lower than 1 μM, “B” refers to IC50 value between 1-10 μM (both inclusive) and “C” refers to IC50 value higher than 10 μM or less than 50% activity at 10 μM.
In general terms: In ATP-based viability assays light output follows the ATP content of the culture.

Assay [3] concerns the target T1, SMARCA2. In words: SMARCA2 degradation in H929 cells by Western blot. On the set-up: endogenous in cells. To be noted: 16 hours. Here is the method:
(§1) Determination of SMARCA2 and SMARCA4 Degradation in H929 Cells by Western Blot:
(§2) NCI-H929 (ATCC CRL-9068) was plated in 6 well plates using complete RPMI-1640 media. Next day, compounds of present invention were added to cells from 10 mM stocks made in DMSO (Sigma Cat no. D2650). Each concentration of compound was tested with DMSO not exceeding final percentage of 0.3 in the cells. Cells were incubated with the compound for 16 hours followed by harvesting with 1× RIPA lysis buffer (Thermo Fischer, catalogue number #89900) containing protease inhibitor cocktail (Sigma catalogue number #P-8340). Equal amount of protein was loaded on SDS PAGE gel for electrophoresis. Western blot was carried out for detection of either SMARCA2 (Cell signaling technologies, catalogue number #11966) or SMARCA4 antibody (Cell signaling technologies, catalogue number #49360). Beta Actin (Santa Cruz, catalogue number #69879) was used as loading control. Percentage of SMARCA2 or SMARCA4 degradation was calculated using formula % Degradation=100−(normalized band intensity in treated sample/normalized band intensity in DMSO sample)*100.
(§3) Selected compounds of the present invention were screened in the above mentioned assay procedures for determination of % SMARCA2 and SMARCA4 degradation 100 nM and the results are summarized in below table 30.

Assay [4] relates to NCI-H929 cells. The assay can be described thus: Anti proliferative activity in NCI-H929 cell line by Cell Titer Glo assay. Particulars: Homo sapiens, 72 h, 3 days compound incubation, CellTiter Glo, read-out: Anti-proliferative activity IC50 group (NCI-H929 cells). The essentials: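 Cells seeded in complete RPMI-1640 and exposed next day to compounds in triplicate (DMSO ≤0.3% final) for 3 days (H929) or 8 days (H838). Viability by CellTiter-Glo ATP luminescence; % inhibition relative to DMSO control, IC50 from dose-response fit.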

Assay [5] concerns the target T2, SMARCA4 (Homo sapiens, UniProt P51532).
T2 construct: endogenous in cells; host or cells: NCI-H929 (ATCC CRL-9068)
In words: SMARCA4 degradation in H929 cells by Western blot. Particulars: 16 hours; for SMARCA4 percent degradation at 0.1 µM: NCI-H929, 100 nM. Here is the method:
as §1, §2, §3

The source of these data is US12371426B2, “Pyridazine derivatives as SMARCA2/4 degraders” (Aurigene Discovery Technologies Limited, priority 2018, dated 2025).

In general, IC50 refers to the concentration needed to halve the response being measured.

T2 sequence (P51532 whole entry): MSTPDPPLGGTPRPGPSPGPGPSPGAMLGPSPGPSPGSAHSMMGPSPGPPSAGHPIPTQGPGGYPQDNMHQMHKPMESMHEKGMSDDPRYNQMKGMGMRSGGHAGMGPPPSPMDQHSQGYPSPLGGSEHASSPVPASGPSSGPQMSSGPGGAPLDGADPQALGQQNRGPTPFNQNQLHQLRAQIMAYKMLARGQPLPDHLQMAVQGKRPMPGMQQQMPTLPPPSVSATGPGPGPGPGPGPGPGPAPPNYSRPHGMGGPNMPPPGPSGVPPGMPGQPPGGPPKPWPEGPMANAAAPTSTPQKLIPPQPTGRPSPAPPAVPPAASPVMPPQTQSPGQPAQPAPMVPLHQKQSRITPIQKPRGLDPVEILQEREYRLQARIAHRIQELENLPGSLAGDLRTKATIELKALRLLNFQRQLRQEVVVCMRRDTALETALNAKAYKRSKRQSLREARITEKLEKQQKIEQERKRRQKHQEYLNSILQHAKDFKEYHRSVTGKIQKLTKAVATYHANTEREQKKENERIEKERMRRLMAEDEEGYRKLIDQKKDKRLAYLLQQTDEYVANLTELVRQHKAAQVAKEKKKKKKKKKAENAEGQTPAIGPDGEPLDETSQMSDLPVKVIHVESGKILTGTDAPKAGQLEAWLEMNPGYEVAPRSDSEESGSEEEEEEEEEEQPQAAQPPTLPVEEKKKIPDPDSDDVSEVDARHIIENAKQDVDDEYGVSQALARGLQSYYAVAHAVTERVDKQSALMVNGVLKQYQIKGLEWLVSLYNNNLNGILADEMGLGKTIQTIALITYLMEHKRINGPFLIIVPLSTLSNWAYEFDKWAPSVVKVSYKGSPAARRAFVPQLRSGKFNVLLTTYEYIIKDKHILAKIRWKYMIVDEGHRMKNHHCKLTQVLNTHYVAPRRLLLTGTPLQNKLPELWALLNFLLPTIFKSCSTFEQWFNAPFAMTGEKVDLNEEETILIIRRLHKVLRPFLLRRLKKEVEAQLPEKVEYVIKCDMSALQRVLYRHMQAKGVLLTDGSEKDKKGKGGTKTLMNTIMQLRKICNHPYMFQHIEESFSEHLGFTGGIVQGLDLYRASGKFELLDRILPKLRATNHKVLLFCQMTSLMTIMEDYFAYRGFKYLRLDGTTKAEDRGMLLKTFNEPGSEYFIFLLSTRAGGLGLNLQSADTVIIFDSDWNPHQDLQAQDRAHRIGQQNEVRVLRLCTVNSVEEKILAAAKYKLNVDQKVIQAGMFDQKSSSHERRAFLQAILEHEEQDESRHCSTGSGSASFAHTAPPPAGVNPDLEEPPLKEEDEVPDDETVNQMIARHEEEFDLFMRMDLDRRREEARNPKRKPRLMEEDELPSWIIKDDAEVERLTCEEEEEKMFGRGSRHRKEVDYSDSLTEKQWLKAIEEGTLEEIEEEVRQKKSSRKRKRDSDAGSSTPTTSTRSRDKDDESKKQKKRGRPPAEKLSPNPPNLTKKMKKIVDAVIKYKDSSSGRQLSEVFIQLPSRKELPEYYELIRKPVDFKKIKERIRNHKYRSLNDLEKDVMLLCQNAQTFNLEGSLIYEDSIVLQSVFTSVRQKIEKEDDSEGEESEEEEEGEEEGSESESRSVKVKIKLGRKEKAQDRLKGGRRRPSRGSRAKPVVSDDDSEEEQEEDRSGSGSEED
T1 sequence (P51531 whole entry): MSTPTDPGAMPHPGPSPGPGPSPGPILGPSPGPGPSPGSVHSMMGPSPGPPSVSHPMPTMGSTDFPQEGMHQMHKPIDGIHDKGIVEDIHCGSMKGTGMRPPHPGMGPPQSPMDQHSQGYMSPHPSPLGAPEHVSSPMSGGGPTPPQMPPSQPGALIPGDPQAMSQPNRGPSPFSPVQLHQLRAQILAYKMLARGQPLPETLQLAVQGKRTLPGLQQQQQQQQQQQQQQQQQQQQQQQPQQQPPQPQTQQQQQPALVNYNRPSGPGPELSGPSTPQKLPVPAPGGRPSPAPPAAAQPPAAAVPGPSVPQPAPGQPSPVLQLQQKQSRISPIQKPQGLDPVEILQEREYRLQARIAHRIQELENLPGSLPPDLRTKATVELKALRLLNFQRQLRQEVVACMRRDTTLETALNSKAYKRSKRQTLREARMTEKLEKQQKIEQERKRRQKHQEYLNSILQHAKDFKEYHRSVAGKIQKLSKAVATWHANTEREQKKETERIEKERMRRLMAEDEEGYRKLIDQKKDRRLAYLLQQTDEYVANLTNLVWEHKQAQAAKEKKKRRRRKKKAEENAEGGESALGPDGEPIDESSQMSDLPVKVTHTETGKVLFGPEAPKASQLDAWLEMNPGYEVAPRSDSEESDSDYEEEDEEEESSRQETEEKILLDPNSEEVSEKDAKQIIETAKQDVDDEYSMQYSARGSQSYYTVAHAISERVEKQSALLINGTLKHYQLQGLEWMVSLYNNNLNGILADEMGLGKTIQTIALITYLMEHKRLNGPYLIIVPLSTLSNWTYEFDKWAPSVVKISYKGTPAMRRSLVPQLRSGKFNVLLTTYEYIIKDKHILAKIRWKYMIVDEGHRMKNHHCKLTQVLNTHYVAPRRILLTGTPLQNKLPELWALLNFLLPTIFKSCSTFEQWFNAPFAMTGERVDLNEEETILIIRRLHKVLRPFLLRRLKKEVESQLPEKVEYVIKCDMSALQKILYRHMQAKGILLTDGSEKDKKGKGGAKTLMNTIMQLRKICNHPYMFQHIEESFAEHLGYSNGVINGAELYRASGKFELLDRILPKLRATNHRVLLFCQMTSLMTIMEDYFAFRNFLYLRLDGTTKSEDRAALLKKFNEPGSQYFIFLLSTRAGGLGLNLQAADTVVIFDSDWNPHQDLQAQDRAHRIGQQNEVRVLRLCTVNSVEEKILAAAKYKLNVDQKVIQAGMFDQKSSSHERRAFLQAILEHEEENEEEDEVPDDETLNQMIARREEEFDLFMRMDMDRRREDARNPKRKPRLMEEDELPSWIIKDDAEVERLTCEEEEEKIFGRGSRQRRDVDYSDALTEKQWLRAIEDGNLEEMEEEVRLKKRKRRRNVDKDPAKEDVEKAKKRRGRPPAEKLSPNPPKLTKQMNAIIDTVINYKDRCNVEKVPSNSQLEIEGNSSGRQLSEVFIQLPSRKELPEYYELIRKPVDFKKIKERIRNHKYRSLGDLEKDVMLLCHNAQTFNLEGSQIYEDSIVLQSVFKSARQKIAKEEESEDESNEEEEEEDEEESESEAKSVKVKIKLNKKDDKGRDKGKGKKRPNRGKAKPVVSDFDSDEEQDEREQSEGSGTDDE

Consider `Cc1ncsc1-c1ccc([C@H](C)NC(=O)[C@@H]2C[C@@H](O)CN2C(=O)[C@@H](NC(=O)C=C2CCN(c3cc(-c4ccccc4O)nnc3N)CC2)C(C)(C)C)cc1` [Compound 103], for which the “SMARCA2 @ 100 nM (% SMARCA2 degradation)” value in assay [1] is reported as 64%. For the same molecule, the IC50 in assay [2] was < 1000 nM.

Consider `Cc1ncsc1-c1ccc([C@H](C)NC(=O)[C@@H]2C[C@@H](O)CN2C(=O)[C@@H](NC(=O)C(C)C2CCN(c3cc(-c4cccc(F)c4O)nnc3N)CC2)C(C)(C)C)cc1` (single isomer, unassigned) [Compound 83], for which the “SMARCA2 @ 100 nM (% SMARCA2 degradation)” value in assay [1] is reported as 7%. Further, in assay [2], the IC50 was < 1000 nM. The “SMARCA2 Percent degradation @ 100 nM” value in assay [3] came out at 100%.

As for `Cc1ncsc1-c1ccc([C@H](C)NC(=O)[C@@H]2C[C@@H](O)CN2C(=O)[C@@H](NC(=O)CC2(O)CCN(c3cc(-c4ccccc4O)nnc3N)CC2)C(C)(C)C)cc1` [Compound 55, (2S,4R)-1-((S)-2-(2-(1-(3-amino-6-(2-hydroxyphenyl)pyridazin-4-yl)-4-hydroxypiperidin-4-yl)acetamido)-3,3-dimethylbutanoyl)-4-hydroxy-N—((S)-1-(4-(4-methylthiazol-5-yl)phenyl)ethyl)pyrrolidine-2-carboxamide], the IC50 in assay [4] and in assay [2] was < 1000 nM in each case.

`Cc1ncsc1-c1ccc([C@H](C)NC(=O)[C@@H]2C[C@@H](O)CN2C(=O)[C@@H](NC(=O)CN2CCN(c3cc(-c4ccccc4O)nnc3N)CC2)C(C)(C)C)cc1` [Compound 43]: in assay [5], the “SMARCA4 Percent degradation @ 100 nM” value worked out at 100%. Moreover, the IC50 in assay [4] and in assay [2] was < 1000 nM throughout. The “SMARCA2 @ 100 nM (% SMARCA2 degradation)” value in assay [1] is recorded as 97%. In addition, in assay [3], the “SMARCA2 Percent degradation @ 100 nM” value is given as 100%.

Take `Cc1ncsc1-c1ccc([C@H](C)NC(=O)[C@@H]2C[C@@H](O)CN2C(=O)[C@@H](NC(=O)CN2CCC(c3cc(-c4ccccc4O)nnc3N)CC2)C(C)(C)C)cc1` [Compound 81]: the IC50 in assay [4] and in assay [2] was < 1000 nM in each case. Also, in assay [1], the “SMARCA2 @ 100 nM (% SMARCA2 degradation)” value turned out to be 34%.

For the molecule `Cc1ncsc1-c1ccc([C@H](C)NC(=O)[C@@H]2C[C@@H](O)CN2C(=O)[C@@H](NC(=O)CN2CCN(c3cc(-c4cc(F)ccc4O)nnc3N)CC2)C(C)(C)C)cc1` [Compound 63, (2S,4R)-1-((S)-2-(2-(4-(3-amino-6-(5-fluoro-2-hydroxyphenyl)pyridazin-4-yl)piperazin-1-yl)acetamido)-3,3-dimethylbutanoyl)-4-hydroxy-N—((S)-1-(4-(4-methylthiazol-5-yl)phenyl)ethyl)pyrrolidine-2-carboxamide], the “SMARCA2 @ 100 nM (% SMARCA2 degradation)” value in assay [1] came to 94%. In addition, the IC50 in assay [2] was < 1000 nM.

In turn, `Cc1ncsc1-c1ccc([C@H](C)NC(=O)[C@@H]2C[C@@H](O)CN2C(=O)[C@@H](NC(=O)CC2CCN(c3cc(-c4ccccc4O)nnc3N)CC2)C(C)(C)C)cc1` [Compound 51, (2S,4R)-1-((S)-2-(2-(1-(3-amino-6-(2-hydroxyphenyl)pyridazin-4-yl)piperidin-4-yl)acetamido)-3,3-dimethylbutanoyl)-4-hydroxy-N—((S)-1-(4-(4-methylthiazol-5-yl)phenyl)ethyl)pyrrolidine-2-carboxamide] registered an SMARCA4 percent degradation at 0.1 µM in assay [5] of 99%. Moreover, the IC50 in assay [4] and in assay [2] was < 1000 nM in each case. Moreover, the “SMARCA2 @ 100 nM (% SMARCA2 degradation)” value in assay [1] amounted to 99%.

As for `Cc1ncsc1-c1ccc([C@H](C)NC(=O)[C@@H]2C[C@@H](O)CN2C(=O)[C@@H](NC(=O)CN2CCN(c3cc(-c4ccccc4F)nnc3N)CC2)C(C)(C)C)cc1` [Compound 44], the SMARCA4 percent degradation at 0.1 µM in assay [5] came out at 82%. Further, in assay [4], the IC50 was in the range of 1000 to 10000 nM. The “SMARCA2 Percent degradation @ 100 nM” value in assay [3] is 93%.

In the case of `Cc1ncsc1-c1ccc([C@H](C)NC(=O)[C@@H]2C[C@@H](O)CN2C(=O)[C@@H](NC(=O)CN2CCN(c3cc(-c4c(O)ccc(F)c4F)nnc3N)CC2)C(C)(C)C)cc1` [Compound 96], the “SMARCA2 @ 100 nM (% SMARCA2 degradation)” value in assay [1] is on record as 76%. Further, the IC50 in assay [2] was < 1000 nM.

With `Cc1ncsc1-c1ccc([C@H](C)NC(=O)[C@@H]2C[C@@H](O)CN2C(=O)[C@@H](NC(=O)CN2CC=C(c3cc(-c4ccccc4O)nnc3N)CC2)C(C)(C)C)cc1` [Compound 82], the IC50 in assay [4] and in assay [2] was < 1000 nM in each case. Besides, the “SMARCA2 @ 100 nM (% SMARCA2 degradation)” value in assay [1] is 61%.

Take `Cc1cccc(-c2cc(N3CCN(CC(=O)N[C@H](C(=O)N4C[C@H](O)C[C@H]4C(=O)N[C@@H](C)c4ccc(-c5scnc5C)cc4)C(C)(C)C)CC3)c(N)nn2)c1O` [Compound 91]: in assay [1], the “SMARCA2 @ 100 nM (% SMARCA2 degradation)” value amounted to 82%. Further, the 50% inhibitory concentration (IC50) in assay [2] was < 1000 nM.

`Cc1ncsc1-c1ccc([C@H](C)NC(=O)[C@@H]2C[C@@H](O)CN2C(=O)[C@@H](NC(=O)C(C)N2CCN(c3cc(-c4ccccc4O)nnc3N)CC2)C(C)(C)C)cc1` (stereo partly drawn) [Compound 56, (2S,4R)-1-((2S)-2-(2-(4-(3-amino-6-(2-hydroxyphenyl)pyridazin-4-yl)piperazin-1-yl)propanamido)-3,3-dimethylbutanoyl)-4-hydroxy-N—((S)-1-(4-(4-methylthiazol-5-yl)phenyl)ethyl)pyrrolidine-2-carboxamide]: the SMARCA4 percent degradation at 0.1 µM in assay [5] is 100%. Besides, the IC50 in assay [4] is < 1000 nM. In addition, the “SMARCA2 Percent degradation @ 100 nM” value in assay [3] came out at 99%.

`Cc1ncsc1-c1ccc([C@H](C)NC(=O)[C@@H]2C[C@@H](O)CN2C(=O)[C@@H](NC(=O)CN2C3CCC2CN(c2cc(-c4ccccc4O)nnc2N)C3)C(C)(C)C)cc1` [Compound 61, (2S,4R)-1-((2S)-2-(2-(3-(3-amino-6-(2-hydroxyphenyl)pyridazin-4-yl)-3,8-diazabicyclo[3.2.1]octan-8-yl)acetamido)-3,3-dimethylbutanoyl)-4-hydroxy-N—((S)-1-(4-(4-methylthiazol-5-yl)phenyl)ethyl)pyrrolidine-2-carboxamide]: the “SMARCA2 @ 100 nM (% SMARCA2 degradation)” value in assay [1] amounted to 35%. For the same molecule, in assay [2], the IC50 was < 1000 nM.

With `Cc1ncsc1-c1ccc([C@H](C)NC(=O)[C@@H]2C[C@@H](O)CN2C(=O)[C@@H](NC(=O)C(C)N2CCN(c3cc(-c4ccccc4O)nnc3N)CC2)C(C)(C)C)cc1` (single isomer, unassigned) [Compound 58], the SMARCA4 percent degradation at 0.1 µM in assay [5] was found to be 100%. Also, the “SMARCA2 @ 100 nM (% SMARCA2 degradation)” value in assay [1] is 71%. Moreover, the IC50 in assay [2] is < 1000 nM. Moreover, the “SMARCA2 Percent degradation @ 100 nM” value in assay [3] is 100%.

In turn, `Cc1ncsc1-c1ccc([C@H](C)NC(=O)[C@@H]2C[C@@H](O)CN2C(=O)[C@@H](NC(=O)CC2CCN(c3cc(-c4cccc(F)c4O)nnc3N)CC2)C(C)(C)C)cc1` [Compound 98] had an SMARCA4 percent degradation at 0.1 µM in assay [5] of 99%. Besides, the IC50 in assay [4] is < 1000 nM. The “SMARCA2 Percent degradation @ 100 nM” value in assay [3] was determined as 88%.
